Data published in US20240024379A1, “EXTRACT OF BACTERIA OF THE GENUS SPHINGOMONAS” (L’OREAL, priority 2020, published 2024).
Values joined by “and” are separate entries in the source; they are usually repeats but may differ in a detail not shown here. Equal values may be shown once.

Experiments:
Format in all cases: cell-based
[1] = test system: IgE production by human B lymphocytes; assay: IgE production by human B lymphocytes stimulated with anti-CD40 and IL-4, ELISA; conditions: Anti CD-40 10 μg/ml + IL-4 10 ng/ml, 14 days; for IgE: single replicates
Procedure: In the study, the effect of the extract has been assessed on the IgE production by purified human B lymphocytes (isolation of the CD19^+ lymphocytes from mononuclear cells of the peripheral blood). More specifically, the IgE production has been induced by the stimulation of the B lymphocytes with the combination of anti-CD40 antibody and of IL-4. After 14 days of incubation, the amount of IgE released in the culture supernatants has been quantified using a specific ELISA kit. Concomitantly with the tested extract, 3 other molecules have also been assessed in this test. the reference standard CpG-ODN 2006 (a TLR9 ligand), as well as IFN-γ and PGE2 have been tested as reference compounds.
The B lymphocytes CD19^+ have been isolated, sown in 24-well plates and incubated over one night in the culture medium. Afterwards, the compounds to be tested, tested alone or in combination, and the reference compounds have been added, or not (controls), and the cells have been pre-incubated for 2 hours. Afterwards, the inducer (a CD40+IL-4 combination) has been added, or not (unstimulated control) and the treatments with the test or the reference compounds have been repeated. Afterwards, the cells have been incubated for 14 days at a final density of 1.7×10^6 cells/ml). […]
The amount of IgE released in the culture supernatants has been measured using a specific ELISA kit according to the instructions of the supplier.

Claudin 1 = assay: Gene expression by RT-qPCR in normal human epidermal keratinocytes, Claudin 1; conditions: NHEK, 24 hours; 1.00E−07 M, DMSO
Procedure: (§1) Normal human epidermal keratinocytes (NHEK) have been sown in 48-well culture plates and then cultured in a culture medium for 3 days at 37° C. and 5% of CO2 with a renewal of the culture medium after first 24 hours of culture. At the end of the incubation, the culture medium has been replaced with a test medium (supplemented with 1.5 mM of CaCl2)) containing no (control) or containing the compounds to be tested, and the cells has then been incubated for 24 hours. All conditions have been carried out in duplicate. At the end of the treatments, the culture media have been eliminated and the cells have been rinsed twice with PBS (without CaCl2, without MgCl2). Afterwards, the total RNA has been isolated using an extraction kit. The quantification of RNA and its quality control have been analyzed by means of Labchip GX (Perkin Elmer). The expression of the selected transcripts has been analyzed by quantitative PCR in two steps. First of all, the cDNAs have been transcribed in the opposite direction from the RNAs. Afterwards, the quantitative PCR experiments have been carried out using a real-time PCR system. […] The RNAs are extracted, quantified and their quality is checked before performing their reverse transcription into cDNA. Finally, an RT-qPCR is carried out for each experimental condition in order to quantify the expression of the set of selected genes.

Cornifelin = assay: Gene expression by RT-qPCR in normal human epidermal keratinocytes, Cornifelin; conditions: NHEK, 24 hours; 1.00E−07 M, DMSO
Procedure: as §1

Zonula Occludens-1 = assay: Gene expression by RT-qPCR in normal human epidermal keratinocytes, Zonula Occludens-1; conditions: NHEK, 24 hours; 1.00E−07 M, DMSO
Procedure: as §1

hTLR2 = biological target: T1, hTLR2 (Homo sapiens, UniProt O60603); assay: TLR reporter (SEAP/NFkB) test on HEK293 cell line with hTLR2
T1 construct: host or cells: HEK-293
Procedure: (§2) The extract and the controls are tested in duplicate on recombinant HEK-293 cell lines. These cell lines functionally over-express human TLR proteins as well as a reporter gene that is a secreted alkaline phosphatase (SEAP). The production of this reporter gene is governed by an NFkB inducible promoter. The results of activation of the TLR reporters are given in the form of optical density (OD) values.
(§3) CU-T12-9 and FSL-1 are used on the cells expressing hTLR2 to respectively assess the TLR1/TLR2 and TLR2/TLR6 activities.
(§4) […] CU-T12-9 is tested at 200 nM and 300 nM.
(§5) 20 μl of the extract have been used to stimulate the reporter hTLR cell line in 200 μl of reaction volume. For the dose-response on the HEK-Blue-hTLR5 cell lines, the liquid extract obtained according to Example 1 has been tested in duplicate, at the following concentrations: 1000 μg/ml, 500 μg/ml, 250 μg/ml, 125 μg/ml, 62.5 μg/ml, 31.5 μg/ml. For the TLR1/2 and/or TLR2/6 specificity, the liquid extract obtained according to Example 1 has been tested in duplicate at the following concentrations: 100 μg/ml, 30 μg/ml and 10 μg/ml.

hTLR2-1 = biological target: T2, hTLR2-1 (Homo sapiens, UniProt O60603+Q15399); assay: TLR reporter (SEAP/NFkB) test on HEK293 cell line with hTLR2-1
T2 construct: host or cells: HEK-293
Procedure: as §2, §3, §4
20 μl of the extract have been used to stimulate the reporter hTLR cell line in 200 μl of reaction volume. For the dose-response on the HEK-Blue-hTLR5 cell lines, the liquid extract obtained according to Example 1 has been tested in duplicate, at the following concentrations: 1000 μg/ml, 500 μg/ml, 250 μg/ml, 125 μg/ml, 62.5 μg/ml, 31.5 μg/ml. […]

hTLR2-6 = biological target: T3, hTLR2-6 (Homo sapiens, UniProt O60603+Q9Y2C9); assay: TLR reporter (SEAP/NFkB) test on HEK293 cell line with hTLR2-6
T3 construct: host or cells: HEK-293
Procedure: as §2, §3, §4, §5

T2 sequence (O60603 21-784): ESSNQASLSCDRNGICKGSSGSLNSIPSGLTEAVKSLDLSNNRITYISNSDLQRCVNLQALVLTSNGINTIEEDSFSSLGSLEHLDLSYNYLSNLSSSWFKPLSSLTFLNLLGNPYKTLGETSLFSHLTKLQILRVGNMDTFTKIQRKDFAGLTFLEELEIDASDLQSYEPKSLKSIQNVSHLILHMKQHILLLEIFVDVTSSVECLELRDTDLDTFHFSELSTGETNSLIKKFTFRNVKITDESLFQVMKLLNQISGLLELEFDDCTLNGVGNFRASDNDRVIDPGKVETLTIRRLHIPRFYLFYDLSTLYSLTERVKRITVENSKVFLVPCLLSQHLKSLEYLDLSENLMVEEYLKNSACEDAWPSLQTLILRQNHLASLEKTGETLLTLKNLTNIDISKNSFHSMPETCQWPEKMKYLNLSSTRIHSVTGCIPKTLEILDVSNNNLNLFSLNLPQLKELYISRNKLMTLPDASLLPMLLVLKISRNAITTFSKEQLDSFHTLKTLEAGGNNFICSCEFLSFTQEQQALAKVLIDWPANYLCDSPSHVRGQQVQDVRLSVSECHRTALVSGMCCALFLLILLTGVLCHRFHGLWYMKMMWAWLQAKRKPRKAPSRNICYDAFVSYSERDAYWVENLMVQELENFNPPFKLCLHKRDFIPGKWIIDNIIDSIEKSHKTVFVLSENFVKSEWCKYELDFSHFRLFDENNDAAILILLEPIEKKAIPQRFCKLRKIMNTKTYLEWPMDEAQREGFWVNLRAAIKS
T2 sequence (Q15399 25-786): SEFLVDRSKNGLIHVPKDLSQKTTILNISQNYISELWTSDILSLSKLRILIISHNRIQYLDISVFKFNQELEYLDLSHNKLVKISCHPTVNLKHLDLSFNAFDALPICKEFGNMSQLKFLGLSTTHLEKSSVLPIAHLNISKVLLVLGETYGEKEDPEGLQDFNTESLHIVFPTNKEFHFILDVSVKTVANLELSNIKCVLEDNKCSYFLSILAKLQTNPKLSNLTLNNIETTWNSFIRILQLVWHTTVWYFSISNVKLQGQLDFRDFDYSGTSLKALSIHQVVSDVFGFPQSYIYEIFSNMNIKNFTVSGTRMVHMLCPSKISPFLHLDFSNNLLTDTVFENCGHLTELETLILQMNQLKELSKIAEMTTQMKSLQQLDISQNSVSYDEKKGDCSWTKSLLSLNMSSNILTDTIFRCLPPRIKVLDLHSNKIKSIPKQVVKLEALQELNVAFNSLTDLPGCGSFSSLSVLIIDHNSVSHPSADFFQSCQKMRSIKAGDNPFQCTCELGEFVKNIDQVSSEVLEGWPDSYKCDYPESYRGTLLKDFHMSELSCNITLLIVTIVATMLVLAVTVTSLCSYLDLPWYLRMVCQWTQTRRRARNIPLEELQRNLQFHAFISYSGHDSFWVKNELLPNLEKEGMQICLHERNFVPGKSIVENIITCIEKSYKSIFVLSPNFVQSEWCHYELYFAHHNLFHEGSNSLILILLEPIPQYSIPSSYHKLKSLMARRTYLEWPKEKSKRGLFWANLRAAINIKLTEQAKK
T3 sequence (O60603 21-784): as the sequence (O60603 21-784) above
T3 sequence (Q9Y2C9 32-796): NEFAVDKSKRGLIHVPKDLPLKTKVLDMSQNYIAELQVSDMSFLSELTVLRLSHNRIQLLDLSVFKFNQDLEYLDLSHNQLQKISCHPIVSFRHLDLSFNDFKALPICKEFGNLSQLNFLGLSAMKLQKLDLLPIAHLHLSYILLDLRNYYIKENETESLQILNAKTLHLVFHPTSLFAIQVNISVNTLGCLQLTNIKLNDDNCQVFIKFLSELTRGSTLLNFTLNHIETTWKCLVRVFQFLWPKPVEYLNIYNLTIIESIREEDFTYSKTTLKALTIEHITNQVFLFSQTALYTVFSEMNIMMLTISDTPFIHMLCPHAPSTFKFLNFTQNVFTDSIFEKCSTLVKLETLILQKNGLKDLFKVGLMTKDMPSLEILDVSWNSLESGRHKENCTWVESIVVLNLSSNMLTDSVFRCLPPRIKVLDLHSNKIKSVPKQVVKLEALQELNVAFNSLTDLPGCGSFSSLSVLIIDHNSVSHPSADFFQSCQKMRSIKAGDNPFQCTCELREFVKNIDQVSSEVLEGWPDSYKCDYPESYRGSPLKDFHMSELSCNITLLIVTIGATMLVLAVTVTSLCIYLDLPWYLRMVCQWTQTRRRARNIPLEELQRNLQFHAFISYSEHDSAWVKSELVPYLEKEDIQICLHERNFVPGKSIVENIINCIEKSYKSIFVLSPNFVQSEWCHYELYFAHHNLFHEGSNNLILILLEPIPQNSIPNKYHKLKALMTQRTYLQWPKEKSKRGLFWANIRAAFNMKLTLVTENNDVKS
T1 sequence (O60603 21-784): as the sequence (O60603 21-784) above

Compound: IFN-γ: reference compound, R&D Systems, ref. 285-IF-100/CF
- IgE % of the stimulated control ([1]; 10 ng/ml): 20%
- IgE Mean ([1]; 10 ng/ml): 738 pg/mL
- IgE ([1]; 10 ng/ml): 1012 pg/mL and 166 pg/mL and 1036 pg/mL

Compound: CpG-ODN 2006
- IgE % of the stimulated control ([1]; 3 μM): <3%
- IgE Mean ([1]; 3 μM): <123 pg/mL
- IgE % of the stimulated control ([1]; 3 μM, listed as CpG-ODN2006): < 3%
- IgE ([1]; 3 μM): <123 pg/mL

Compound: CC1=C(/C=C/C(C)=C/C=C/C(C)=C/CO)C(C)(C)CCC1 [Retinol]
- Average expression of the genes, Claudin 1 (Claudin 1): 0.63
- Average expression of the genes, Cornifelin (Cornifelin): 0.77
- Average expression of the genes, Zonula Occludens-1 (Zonula Occludens-1): 1.61

Compound: CCCCC[C@H](O)/C=C/[C@H]1[C@H](O)CC(=O)[C@@H]1C/C=C\CCCC(=O)O [PGE2]
- IgE % of the stimulated control ([1]; 1 μM): 58%
- IgE Mean ([1]; 1 μM): 2126 pg/mL
- IgE ([1]; 1 μM): 2942 pg/mL and 1495 pg/mL and 1941 pg/mL

Compound: FSL1
- DO (hTLR2; 10 pg/ml): 1.727
- DO (hTLR2; 30 pg/ml): 2.174
- DO (hTLR2-1; 10 pg/ml): 0.027
- DO (hTLR2-1; 30 pg/ml): 0.013
- DO (hTLR2-6; 10 pg/ml): 1.373
- DO (hTLR2-6; 30 pg/ml): 2.047

Compound: CNc1ccc([N+](=O)[O-])cc1-n1cnc(-c2ccc(C(F)(F)F)cc2)c1 [CUT12-9]
- DO (hTLR2; 200 nM): 3.066
- DO (hTLR2; 300 nM): 3.227
- DO (hTLR2-1; 200 nM): 1.474
- DO (hTLR2-1; 300 nM): 1.667
- DO (hTLR2-6; 200 nM): 0.029
- DO (hTLR2-6; 300 nM): 0.024
